Measured values as given in patent US20240238425A1, “HSD17B13 Inhibitors and/or Degraders” (Pfizer Inc., priority 2022, published 2024).
Where a name gives a salt, the structure may show the parent alone.

Test system: HiBiT-HSD17β13 fusion protein (N-terminal HiBiT-tagged HSD17β13 isoform D) in Huh7 HiBiT-HSD17β13 OE cells
Assay: Whole-cell Huh7-HSD17B13 HiBiT assay (degrader potency and maximal efficacy, luminescence readout)
Type: cell-based, human
Details: 24 hour incubation, geometric mean, * = geometric mean for all forms tested (parent and salt forms); for DC50: read-out: Huh7_HIBIT-HSD17β13_DC50 GMean DC50; for Huh7_HIBIT-HSD17β13_DC50 GMean Asymptote Maximum: max. concentration 1 μM
Outline: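 Luminescence from lytic HiBiT detection tracked residual HiBiT-HSD17β13 (isoform D, N-terminal tag) in a stable Huh7 overexpressing clone after 24 h compound treatment at 37° C, 11 concentrations up to 1 μM final. Percent effect used DMSO (zero) and parental Huh7 (high) wells; four-parameter fit gave 50% degradation; viability checked by CellTiter-Glo.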

Cn1c(=O)n(C2CCC(=O)NC2=O)c2ccc(CCCN3CCN(c4ccc(-c5nc([C@]67CC[C@](CNC(=O)c8cc(F)c(O)c(F)c8F)(CC6)CC7)no5)nn4)CC3)cc21 (mixture of isomers) [Example 66, N-{[4-(5-{6-[4-(3-{1-[(3RS)-2,6-dioxopiperidin-3-yl]-3-methyl-2-oxo-2,3-dihydro-1H-benzimidazol-5-yl}propyl)piperazin-1-yl]pyridazin-3-yl}-1,2,4-oxadiazol-3-yl)bicyclo[2.2.2]octan-1-yl]methyl}-2,3,5-trifluoro-4-hydroxybenzamide, trifluoroacetate salt]
DC50: 0.32 nM | Huh7_HIBIT-HSD17β13_DC50 GMean Asymptote Maximum: 75%

Cn1c(=O)n(C2CCC(=O)NC2=O)c2ccc(CCCN3CCN(c4ncc(-c5nc([C@]67CC[C@](CNC(=O)c8cc(F)c(O)c(F)c8F)(CC6)CC7)no5)cn4)CC3)cc21 (mixture of isomers) [Example 67, N-{[4-(5-{2-[4-(3-{1-[(3RS)-2,6-dioxopiperidin-3-yl]-3-methyl-2-oxo-2,3-dihydro-1H-benzimidazol-5-yl}propyl)piperazin-1-yl]pyrimidin-5-yl}-1,2,4-oxadiazol-3-yl)bicyclo[2.2.2]octan-1-yl]methyl}-2,3,5-trifluoro-4-hydroxybenzamide, trifluoroacetate salt]
DC50: 0.18 nM | Huh7_HIBIT-HSD17β13_DC50 GMean Asymptote Maximum: 89%

Cn1c(=O)n(C2CCC(=O)NC2=O)c2ccc(CCCN3CCN(c4cnc(-c5nc([C@]67CC[C@](CNC(=O)c8cc(F)c(O)c(F)c8F)(CC6)CC7)no5)cn4)CC3)cc21 (mixture of isomers) [Example 69, N-{[4-(5-{5-[4-(3-{1-[(3RS)-2,6-dioxopiperidin-3-yl]-3-methyl-2-oxo-2,3-dihydro-1H-benzimidazol-5-yl}propyl)piperazin-1-yl]pyrazin-2-yl}-1,2,4-oxadiazol-3-yl)bicyclo[2.2.2]octan-1-yl]methyl}-2,3,5-trifluoro-4-hydroxybenzamide, trifluoroacetate salt]
DC50: 0.16 nM | Huh7_HIBIT-HSD17β13_DC50 GMean Asymptote Maximum: 88%

Cn1c(=O)n(C2CCC(=O)NC2=O)c2ccc(CCN3CCOC4(CCN(c5ccc6cn([C@H]7CC[C@H](CNC(=O)c8cc(F)c(O)c(F)c8F)CC7)nc6c5)CC4)C3)cc21 (mixture of isomers) [Example 74, N-{[(1r,4r)-4-{6-[4-(2-{1-[(3RS)-2,6-dioxopiperidin-3-yl]-3-methyl-2-oxo-2,3-dihydro-1H-benzimidazol-5-yl}ethyl)-1-oxa-4,9-diazaspiro[5.5]undecan-9-yl]-2H-indazol-2-yl}cyclohexyl]methyl}-2,3,5-trifluoro-4-hydroxybenzamide, trifluoroacetate salt]
DC50: 0.23 nM | Huh7_HIBIT-HSD17β13_DC50 GMean Asymptote Maximum: 87%

Cn1c(=O)n(C2CCC(=O)NC2=O)c2ccc(CCCN3CCOC4(CCN(c5ccc6cn([C@H]7CC[C@H](CNC(=O)c8cc(F)c(O)c(F)c8F)CC7)nc6c5)CC4)C3)cc21 (mixture of isomers) [Example 75, N-{[(1r,4r)-4-{6-[4-(3-{1-[(3RS)-2,6-dioxopiperidin-3-yl]-3-methyl-2-oxo-2,3-dihydro-1H-benzimidazol-5-yl}propyl)-1-oxa-4,9-diazaspiro[5.5]undecan-9-yl]-2H-indazol-2-yl}cyclohexyl]methyl}-2,3,5-trifluoro-4-hydroxybenzamide, trifluoroacetate salt]
DC50: 0.19 nM | Huh7_HIBIT-HSD17β13_DC50 GMean Asymptote Maximum: 88%

Cn1c(=O)n(C2CCC(=O)NC2=O)c2ccc(CCCN3CCN(c4cnc(-c5ccc6cn([C@H]7CC[C@H](CNC(=O)c8cc(F)c(O)c(F)c8F)CC7)nc6c5)nc4)CC3)cc21 (mixture of isomers) [Example 76, N-{[(1r,4r)-4-(6-{5-[4-(3-{1-[(3RS)-2,6-dioxopiperidin-3-yl]-3-methyl-2-oxo-2,3-dihydro-1H-benzimidazol-5-yl}propyl)piperazin-1-yl]pyrimidin-2-yl}-2H-indazol-2-yl)cyclohexyl]methyl}-2,3,5-trifluoro-4-hydroxybenzamide, trifluoroacetate salt]
DC50: 0.15 nM | Huh7_HIBIT-HSD17β13_DC50 GMean Asymptote Maximum: 89* %

Cn1c(=O)n(C2CCC(=O)NC2=O)c2ccc(CN3CCOC4(CCN(c5ccc6cn([C@H]7CC[C@H](CNC(=O)c8cc(F)c(O)c(F)c8F)CC7)nc6c5)CC4)C3)cc21 (mixture of isomers) [Example 77, N-{[(1r,4r)-4-{6-[4-({1-[(3RS)-2,6-dioxopiperidin-3-yl]-3-methyl-2-oxo-2,3-dihydro-1H-benzimidazol-5-yl}methyl)-1-oxa-4,9-diazaspiro[5.5]undecan-9-yl]-2H-indazol-2-yl}cyclohexyl]methyl}-2,3,5-trifluoro-4-hydroxybenzamide, trifluoroacetate salt]
DC50: 0.93 nM | Huh7_HIBIT-HSD17β13_DC50 GMean Asymptote Maximum: 86%

Cn1c(=O)n(C2CCC(=O)NC2=O)c2ccc(CN3CCOC4(C3)CN(c3ncc(-c5ccc6cn([C@H]7CC[C@H](CNC(=O)c8cc(F)c(O)c(F)c8F)CC7)nc6c5)cn3)C4)cc21 (mixture of isomers) [Example 78, N-{[(1r,4r)-4-(6-{2-[8-({1-[(3RS)-2,6-dioxopiperidin-3-yl]-3-methyl-2-oxo-2,3-dihydro-1H-benzimidazol-5-yl}methyl)-5-oxa-2,8-diazaspiro[3.5]nonan-2-yl]pyrimidin-5-yl}-2H-indazol-2-yl)cyclohexyl]methyl}-2,3,5-trifluoro-4-hydroxybenzamide, trifluoroacetate salt]
DC50: 0.47 nM | Huh7_HIBIT-HSD17β13_DC50 GMean Asymptote Maximum: 78%

Cn1c(=O)n(C2CCC(=O)NC2=O)c2ccc(CCN3CCOC4(C3)CN(c3ncc(-c5ccc6cn([C@H]7CC[C@H](CNC(=O)c8cc(F)c(O)c(F)c8F)CC7)nc6c5)cn3)C4)cc21 (mixture of isomers) [Example 79, N-{[(1r,4r)-4-(6-{2-[8-(2-{1-[(3RS)-2,6-dioxopiperidin-3-yl]-3-methyl-2-oxo-2,3-dihydro-1H-benzimidazol-5-yl}ethyl)-5-oxa-2,8-diazaspiro[3.5]nonan-2-yl]pyrimidin-5-yl}-2H-indazol-2-yl)cyclohexyl]methyl}-2,3,5-trifluoro-4-hydroxybenzamide, trifluoroacetate salt]
DC50: 0.31 nM | Huh7_HIBIT-HSD17β13_DC50 GMean Asymptote Maximum: 78%

Cn1c(=O)n(C2CCC(=O)NC2=O)c2ccc(C3CC4(CCN(c5ncc(-c6ccc7cn([C@H]8CC[C@H](CNC(=O)c9cc(F)c(O)c(F)c9F)CC8)nc7c6)cn5)CC4)C3)cc21 (mixture of isomers) [Example 80, N-{[(1r,4r)-4-{6-[2-(2-{1-[(3RS)-2,6-dioxopiperidin-3-yl]-3-methyl-2-oxo-2,3-dihydro-1H-benzimidazol-5-yl}-7-azaspiro[3.5]nonan-7-yl)pyrimidin-5-yl]-2H-indazol-2-yl}cyclohexyl]methyl}-2,3,5-trifluoro-4-hydroxybenzamide, trifluoroacetate salt]
DC50: 1.4 nM | Huh7_HIBIT-HSD17β13_DC50 GMean Asymptote Maximum: 84%

Cn1c(=O)n(C2CCC(=O)NC2=O)c2ccc(CCCN3CCN(c4cccc(-c5nc(C67CCC(CNC(=O)c8cc(F)c(O)c(F)c8F)(CC6)CC7)no5)c4)CC3)cc21 (racemic) [Example 81, N-{[4-(5-{3-[4-(3-{1-[(3RS)-2,6-dioxopiperidin-3-yl]-3-methyl-2-oxo-2,3-dihydro-1H-benzimidazol-5-yl}propyl)piperazin-1-yl]phenyl}-1,2,4-oxadiazol-3-yl)bicyclo[2.2.2]octan-1-yl]methyl}-2,3,5-trifluoro-4-hydroxybenzamide]
DC50: 0.86 nM | Huh7_HIBIT-HSD17β13_DC50 GMean Asymptote Maximum: 81%

Cn1c(=O)n(C2CCC(=O)NC2=O)c2ccc(CN3CCN(c4ncc(-c5ccc6cn([C@]78CC[C@](CNC(=O)c9cc(F)c(O)c(F)c9F)(CC7)CC8)nc6c5)cn4)CC3)cc21 (mixture of isomers) [Example 83, N-{[4-(6-{2-[4-({1-[(3RS)-2,6-dioxopiperidin-3-yl]-3-methyl-2-oxo-2,3-dihydro-1H-benzimidazol-5-yl}methyl)piperazin-1-yl]pyrimidin-5-yl}-2H-indazol-2-yl)bicyclo[2.2.2]octan-1-yl]methyl}-2,3,5-trifluoro-4-hydroxybenzamide]
DC50: 0.5 nM | Huh7_HIBIT-HSD17β13_DC50 GMean Asymptote Maximum: 81%

Cn1c(=O)n(C2CCC(=O)NC2=O)c2ccc(CN3CCN(c4ncc(-c5ccn6cc([C@]78CC[C@](CNC(=O)c9cc(F)c(O)c(F)c9F)(CC7)CC8)nc6c5)cn4)CC3)cc21 (mixture of isomers) [Example 84, N-{[4-(7-{2-[4-({1-[(3RS)-2,6-dioxopiperidin-3-yl]-3-methyl-2-oxo-2,3-dihydro-1H-benzimidazol-5-yl}methyl)piperazin-1-yl]pyrimidin-5-yl}imidazo[1,2-a]pyridin-2-yl)bicyclo[2.2.2]octan-1-yl]methyl}-2,3,5-trifluoro-4-hydroxybenzamide]
DC50: 0.59 nM | Huh7_HIBIT-HSD17β13_DC50 GMean Asymptote Maximum: 83%

Cn1c(=O)n(C2CCC(=O)NC2=O)c2ccc(CCCN3C[C@@H]4CN(c5ccc6cn([C@H]7CC[C@H](CNC(=O)c8cc(F)c(O)c(F)c8F)CC7)nc6c5)C[C@@H]4C3)cc21 (mixture of isomers) [Example 85, N-{[(1r,4r)-4-{6-[(3aR,6aS)-5-(3-{1-[(3RS)-2,6-dioxopiperidin-3-yl]-3-methyl-2-oxo-2,3-dihydro-1H-benzimidazol-5-yl}propyl)hexahydropyrrolo[3,4-c]pyrrol-2(1H)-yl]-2H-indazol-2-yl}cyclohexyl]methyl}-2,3,5-trifluoro-4-hydroxybenzamide]
DC50: 0.86 nM | Huh7_HIBIT-HSD17β13_DC50 GMean Asymptote Maximum: 73%

Cn1c(=O)n(C2CCC(=O)NC2=O)c2ccc(CCCN3Cc4cnc(-c5ccc6cn([C@H]7CC[C@H](CNC(=O)c8cc(F)c(O)c(F)c8F)CC7)nc6c5)nc4C3)cc21 (mixture of isomers) [Example 86, N-{[(1r,4r)-4-{6-[6-(3-{1-[(3RS)-2,6-dioxopiperidin-3-yl]-3-methyl-2-oxo-2,3-dihydro-1H-benzimidazol-5-yl}propyl)-6,7-dihydro-5H-pyrrolo[3,4-d]pyrimidin-2-yl]-2H-indazol-2-yl}cyclohexyl]methyl}-2,3,5-trifluoro-4-hydroxybenzamide]
DC50: 0.27 nM | Huh7_HIBIT-HSD17β13_DC50 GMean Asymptote Maximum: 78%
